Reference: US20150259344A1, “IMIDAZOLE DERIVATIVE” (DAINIPPON SUMITOMO PHARMA CO., LTD., priority 2012, published 2015)

Key:
Slc:ddY mice = test: Novel object recognition test in mice (mORT), evaluation of cognitive function; type: in vivo; conditions: 3 mg/kg (oral), administered prior to the 1st trial, 2nd trial 24 hours after
Procedure: Evaluation of Cognitive Function with Mice in Novel Object Recognition Test (Hereinafter. Referred to as “mORT”)
Slc:ddY mice (25 to 30 g, male, Japan SLC) can be used in the novel object recognition test wherein the interval between the 1st trial (training) and the 2nd trial (test) correlates with the memory loss for the objects used in the 1st trial, and a significant memory-loss is observed when the 2nd trial is performed 24 hours after the 1st trial. According to the test mechanism, the present compounds were administered prior to the 1st trial, and the enhancement effect on memory in the 2nd trial was evaluated.

human α7 nAChR = target: T1, human α7 nAChR (Homo sapiens, UniProt P36544); test: Evaluation of PAM activity with human α7 nACh receptor stably expressing cells (aequorin luminescence, FDSS7000); type: cell-based; conditions: 10 μM test compound; ACh at EC20; ratio of RLU (Max-Min) to control wells; read-out: α7PAM (%) @10 μM
T1 construct: expressed in transfected cells
Summary of the method: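 Human α7 nAChR stable cells loaded with 4 μM Viviren (final) for 4 h at room temperature in the dark. Compounds in Hanks/20 mM HEPES/0.2% BSA were added and luminescence recorded on FDSS7000. PAM activity = RLU (Max-Min) ratio of test wells to control wells.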

Slc:Wistar rats = test: Y-shaped maze test in rats (Y-maze test), scopolamine-induced cognitive impairment; type: in vivo; conditions: 3 mg/kg (oral), treated prior to 0.6 mg/kg scopolamine HBr s.c.
Procedure: Evaluation on Improvement Against Cognitive Impairment with Rats in Y-Shaped Maze Test (Hereinafter, Referred to as “Y-Maze Test”)
In Y-maze test, 0.6 mg/kg scopolamine HBr (cat#S0929, Sigma Aldrich, Japan) can be subcutaneously administered to Slc:Wistar rats (280 to 300 g, male, Japan SLC) to cause cognitive impairment and decrease the percentage of spontaneous alternation behavior. According to the test mechanism, the present compounds were treated prior to the administration of scopolamine, and the improvement effect on cognitive impairment is evaluated.

T1 sequence (P36544 23-502): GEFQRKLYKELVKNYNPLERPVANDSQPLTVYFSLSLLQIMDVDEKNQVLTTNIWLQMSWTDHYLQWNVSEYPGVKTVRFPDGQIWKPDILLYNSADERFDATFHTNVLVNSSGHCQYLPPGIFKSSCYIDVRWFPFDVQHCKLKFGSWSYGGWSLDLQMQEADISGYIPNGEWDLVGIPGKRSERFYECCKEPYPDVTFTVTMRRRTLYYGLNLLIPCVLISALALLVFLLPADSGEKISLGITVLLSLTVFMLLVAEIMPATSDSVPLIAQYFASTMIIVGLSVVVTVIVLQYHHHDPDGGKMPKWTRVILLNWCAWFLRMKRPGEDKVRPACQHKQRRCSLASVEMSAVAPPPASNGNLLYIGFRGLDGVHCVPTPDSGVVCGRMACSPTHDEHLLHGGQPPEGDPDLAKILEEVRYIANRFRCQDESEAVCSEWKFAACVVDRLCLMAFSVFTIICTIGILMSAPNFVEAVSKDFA

Row | SMILES | enhancement effect on memory in the 2nd trial (mORT) (Slc:ddY mice) | activity at 10 µM (human α7 nAChR) [%] | improvement effect on cognitive impairment (Y-maze, spontaneous alternation behavior) (Slc:Wistar rats)
1 | CC(C)(F)C(=O)N[C@H]1CC[C@@H](n2cnc(-c3ccc(F)cc3)c2Cl)CC1 [Example 183, N-{cis-4-[5-chloro-4-(4-fluorophenyl)-1H-imidazol-1-yl]cyclohexyl}-2-fluoro-2-methylpropanamide] | significant memory enhancing effect | 791 | significant improvement effect on memory disorder
2 | O=C(NC1CCCCC1)N1CCC(n2cnc(-c3cccc(F)c3)c2)CC1 [Example 1, N-Cyclohexyl-4-[4-(3-fluorophenyl)-1H-imidazol-1-yl]piperidine-1-carboxamide] | significant memory enhancing effect | 836 | significant improvement effect on memory disorder
